Key:
[1] = test system: RPMI-8226; test: Induction of apoptosis in human RPMI-8226 cells assessed as fold increase in caspase-3/7 activity at 0.73 uM; assay type: functional
[2] = target: Mitogen-activated protein kinase 8 (Homo sapiens, UniProt P45983); test: Inhibition of JNK1-alpha-1 (unknown origin)
Mitogen-activated protein kinase 8, sequence (P45983 whole entry): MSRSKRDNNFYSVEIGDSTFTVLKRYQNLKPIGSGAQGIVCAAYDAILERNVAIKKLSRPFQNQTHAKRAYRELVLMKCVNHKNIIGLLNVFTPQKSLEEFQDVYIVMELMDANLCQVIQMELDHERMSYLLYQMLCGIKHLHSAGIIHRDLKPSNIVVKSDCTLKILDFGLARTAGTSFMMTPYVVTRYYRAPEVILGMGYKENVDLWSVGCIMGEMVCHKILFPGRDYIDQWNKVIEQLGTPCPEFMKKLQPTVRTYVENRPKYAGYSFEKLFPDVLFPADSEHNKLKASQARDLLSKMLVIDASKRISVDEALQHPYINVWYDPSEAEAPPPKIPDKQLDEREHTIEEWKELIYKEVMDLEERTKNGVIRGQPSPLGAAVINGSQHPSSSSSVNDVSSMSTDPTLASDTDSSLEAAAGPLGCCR

SMILES | fold change (FC) [1] | IC50 [2] [nM]
O=C(NCCCNc1cc(-c2cn(-c3ccccc3)nc2-c2cccc(O)c2)ccn1)Nc1cccc(C(F)(F)F)c1 | 1.96 | 
O=C(NCCCNc1cc(-c2cn(-c3ccccc3)nc2-c2cccc(O)c2)ccn1)Nc1ccc(F)cc1 |  | 1000

Reference: ChEMBL document CHEMBL5113453, “Design, synthesis, and biological evaluation of a new series of pyrazole derivatives: Discovery of potent and selective JNK3 kinase inhibitors” (Bioorg Med Chem, 2022)
